PMC12082738 (Journal of Enzyme Inhibition and Medicinal Chemistry, 2025)
Each block holds one compound with its values, some of them ahead of it.

Legend:
E. coli β-GUS = E. coli β-GUS (Escherichia coli, UniProt P05804); assay: β-GUS inhibition assay; type: biochemical; settings: for Inhibition type, β-GUS: Lineweaver–Burk and Dixon plots, substrate 4-MUG
α-GUS = settings: read-out: IC50 against α-GUS; cited from earlier work
β-GUS = settings: read-out: IC50 against β-GUS; cited from earlier work
S. cerevisiae α-GUS = S. cerevisiae α-GUS (Saccharomyces cerevisiae, UniProt P07265); assay: α-GUS inhibition assay; type: biochemical
S. cerevisiae α-GUS, sequence (P07265 whole entry): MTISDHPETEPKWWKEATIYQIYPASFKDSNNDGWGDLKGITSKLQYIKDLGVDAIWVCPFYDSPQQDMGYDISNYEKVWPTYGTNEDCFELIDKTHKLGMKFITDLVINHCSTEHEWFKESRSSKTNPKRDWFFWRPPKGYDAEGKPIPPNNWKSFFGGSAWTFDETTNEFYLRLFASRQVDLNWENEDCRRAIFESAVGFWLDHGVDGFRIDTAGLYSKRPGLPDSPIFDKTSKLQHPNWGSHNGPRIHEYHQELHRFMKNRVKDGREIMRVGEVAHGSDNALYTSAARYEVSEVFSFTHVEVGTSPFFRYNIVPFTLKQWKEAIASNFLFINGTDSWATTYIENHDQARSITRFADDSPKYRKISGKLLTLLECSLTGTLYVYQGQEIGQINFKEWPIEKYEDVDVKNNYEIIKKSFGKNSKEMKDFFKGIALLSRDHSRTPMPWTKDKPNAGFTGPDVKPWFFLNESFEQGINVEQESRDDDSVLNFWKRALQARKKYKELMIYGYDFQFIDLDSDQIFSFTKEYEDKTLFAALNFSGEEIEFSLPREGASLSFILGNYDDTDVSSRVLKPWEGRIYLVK

[1] = tested on: platelet-activating factor acetyltransferase; settings: read-out: IC50 platelet-activating factor acetyltransferase; cited from earlier work
[2] = tested on: human umbilical vein endothelial cells; settings: cited from earlier work
[3] = molecular target: protein tyrosine phosphatase-1B; settings: read-out: IC50 protein tyrosine phosphatase-1B; cited from earlier work
α-amylase = settings: read-out: IC50 α-amylase; cited from earlier work
colorectal cancer cells = settings: 7.1 μM; cited from earlier work
L6 myotubes = settings: cited from earlier work
[4] = substrate kinetics, preliminary kinetic assay

E. coli β-GUS, sequence (P05804 whole entry): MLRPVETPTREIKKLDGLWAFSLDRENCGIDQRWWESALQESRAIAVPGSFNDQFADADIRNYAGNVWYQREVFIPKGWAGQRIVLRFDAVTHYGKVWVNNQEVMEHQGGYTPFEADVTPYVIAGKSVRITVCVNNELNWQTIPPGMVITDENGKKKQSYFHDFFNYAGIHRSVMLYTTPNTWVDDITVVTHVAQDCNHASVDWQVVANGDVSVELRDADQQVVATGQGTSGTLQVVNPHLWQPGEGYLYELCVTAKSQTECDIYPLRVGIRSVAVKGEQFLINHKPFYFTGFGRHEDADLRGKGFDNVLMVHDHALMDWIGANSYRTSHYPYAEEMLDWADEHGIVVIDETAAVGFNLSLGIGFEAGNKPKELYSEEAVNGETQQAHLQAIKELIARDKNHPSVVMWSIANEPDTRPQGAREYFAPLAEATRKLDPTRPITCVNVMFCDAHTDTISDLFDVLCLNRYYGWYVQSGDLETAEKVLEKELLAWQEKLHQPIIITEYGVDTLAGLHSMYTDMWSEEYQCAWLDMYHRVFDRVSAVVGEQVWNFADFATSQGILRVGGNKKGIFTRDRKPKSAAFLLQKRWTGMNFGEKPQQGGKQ

SMILES: O=c1c(-c2ccc(O)cc2)coc2cc(O)ccc12 [daidzein]
IC50 (α-GUS): > 100 µM
IC50 (β-GUS): > 100 µM

SMILES: O=[N+]([O-])c1ccc(O[C@H]2O[C@H](CO)[C@@H](O)[C@H](O)[C@H]2O)cc1 [PNPG, 4-Nitrophenyl-α-D-glucopyranoside, reference compound]
Vmax for PNPG hydrolysis by α-GUS (S. cerevisiae α-GUS; [4]): 1.05 ± 0.03 μmol/min/U

SMILES: CC(C)=CCc1c(O)c(CC=C(C)C)c2occ(-c3ccc(O)cc3)c(=O)c2c1O [DPG, 6,8-diprenylgenistein]
IC50 [1]: 19 µM
concentration reversing high glucose induced injury [2]: > 2.5 µM
IC50 [3]: 2.3 to 28 µM
IC50 (α-amylase): 14.8 µM
IC50 (E. coli β-GUS): 4.05 ± 0.16 µM
Ki (E. coli β-GUS): 2620 ± 100 nM
Inhibition type, β-GUS (E. coli β-GUS): Non-competitive
Inhibition type, β-GUS (E. coli β-GUS; listed as Diprenylgenistein): competitive
Ki (S. cerevisiae α-GUS): 11.4 ± 2.2 µM
IC50 (S. cerevisiae α-GUS; IC50 for inhibition of α-GUS, substrate PNPG 500 μM): 60.6 ± 10.3 µM
Inhibition type, α-GUS (S. cerevisiae α-GUS; Lineweaver–Burk and Dixon plots, substrate PNPG): Un-competitive
effect on colorectal cancer cells (colorectal cancer cells): trigger dual apoptosis and autophagy
concentration increasing basal and insulin-stimulated glucose uptake (L6 myotubes): > 10 µM

More lines, now with the values ahead:

Vmax for 4-MUG hydrolysis by β-GUS (E. coli β-GUS; [4]): 7.21 ± 0.10 µmol/min/mg
SMILES: Cc1cc(=O)oc2cc(O[C@@H]3O[C@H](C(=O)O)[C@@H](O)[C@H](O)[C@H]3O)ccc12 [4-MUG, 4-Methylumbelliferyl-β-D-glucuronide, reference compound]

IC50 (E. coli β-GUS): 55 ± 7.6 µM
SMILES: O=C(O)[C@@H](O)[C@H]1OC(=O)[C@H](O)[C@H]1O [DSL, D-Saccharic acid 1,4-lactone, reference compound]
